This passage reports minimal effective dose and IC50 results from patent EP0705258B1, “AZOLYL-CYCLIC AMINE DERIVATIVES WITH IMMUNOMODULATORY ACTIVITY” (Knoll AG, priority 1993, dated 1995).

The IC50 is the concentration at which inhibition is half-maximal.

The test system of assay [1] is tumour necrosis factor-α (TNF-α). The assay can be described thus: Mouse Tumour Necrosis Factor Test (Test B), mouse endotoxin shock model, serum TNF-α by ELISA. In kind it is in vivo, BALB/c mice. The conditions noted are these: Mus musculus; minimum effective oral dose giving significant reduction in serum TNF-α of ≥35%; dosed 2 h before LPS i.p.; ≤ = active at dose given but not tested at lower doses; read-out: MTNF:MED. An excerpt:
Preferred compounds of the present invention are active in an in-vivo test which determines the ability of the compounds to inhibit the release of tumour necrosis factor-α (TNF-α) in a mouse endotoxin shock model (Test B). This model is similar to that described by Zuckerman and Bendele (1989), Infection and Immunity 57 (10): p3009-3013.
Each compound of formula I was combined with a carrier of a solution of 1.5% v/v sorbitan esters under the trade name Tween 80 and 0.25% v/v cellosize in sterile water (100 µl) and was administered orally to a group of four BALB/c mice. The concentration of compound was such as to provide dosages selected from 100, 30, 10, 3, 1, 0.1 and 0.03 mg/kg. Two hours after such oral administration, lipopolysaccharide (LPS) (E. coli 0127:B8) (100 µg) in sterile water (0.2 ml) was administered intraperitoneally to the test mice.
A control group of eight BALB/c mice was treated in a similar manner as the test group except that no test compound was included with the carrier.
One hour after LPS administration the mice were killed and blood was collected by cardiac puncture. The blood was incubated at 20°C for 2 hours and the serum was separated from the clotted blood following centrifugation. Serum tumour necrosis factor-α (TNF-α) levels were assayed by an enzyme-linked immunosorbent assay (ELISA) and the concentration of TNF-α in each of the drug-treated groups was compared with the control group by one-way analysis of variance followed by a multiple t-test.
The ELISA was carried out by coating a 96-well vinyl assay plate (Costar) overnight at 4°C with 50 µl per well of 2 µg/ml hamster anti-mouse TNF monoclonal antibody in 0.1M sodium hydrogen carbonate buffer at pH 8.2. After washing the plate with phosphate buffered saline (PBS) containing 0.05% v/v sorbitan esters under the trade name Tween 20 (wash buffer), a blocking/dilution buffer (10% sheep serum in PBS containing 0.1% v/v sorbitan esters under the trade name Tween 20 (200 µl)) was aliquoted to each well and incubated at 37°C for 0.5 hours. After aspirating the blocking buffer, the serum samples and pure TNF (as a standard) diluted in blocking/dilution buffer, were added to the wells and incubated at 37°C for 2 hours. After washing with the wash buffer, a polyclonal rabbit anti-mouse TNF-α antibody in blocking/dilution buffer (100 µl of a 1 in 10,000 dilution) was added and incubated for a further 1.5 hours at 37°C. After further washes, anti-rabbit IgG peroxidase conjugate (100 µl of a 1 in 4000 dilution) was added and incubated at 37°C for 0.5 hours. After further washing, the substrate solution (100 µl per well of 0.1 mg/ml 3,3', 5,5'-tetramethylbenzidine dihydrochloride in 0.1M phosphate citrate buffer, pH 5.0, to which 2 µl of 30% hydrogen peroxide per 10 ml was added just before use) was added and the colour allowed to develop. The reaction was stopped by the addition of 1M sulphuric acid (25 µl) and the optical density read in a multichannel spectrophotometer at 450 nm. The mean TNF-α concentration was determined by comparison with the standard curve and the mean TNF-α concentration for each group compared with that produced by the control group. Drug treatments which cause a statistically significant reduction in TNF-α concentration of ≥35% at a single dose at 100 mg/kg or less were considered active.
A general note: An ELISA detects its analyte on a solid surface through an enzyme-linked reagent.

Assay [2] deals with Zymosan Stimulated Macrophages. In words: Inhibition of Arachidonic Acid Release from Zymosan Stimulated Macrophages (Test D). It is filed as cell-based, MF1 mice. Conditions: Mus musculus, Macrophage, tested at 100, 50, 20, 10, 5 and 1 µM. The method, then: Female MF1 mice (weighing 20 to 25 g) were killed using a rising concentration of CO2. The mice were laid on their backs and the abdomens wiped with 70% alcohol. The skin was pulled back, exposing the peritoneal wall. Medium A (5 ml) (see below) was injected into the peritoneal cavity of each mouse followed by approximately 1 ml of air using a 20 ml syringe and a 21G x 40 mm needle in order to form a suspension of macrophage cells. The medium and cells were then removed using a 19G x 40 mm needle. The resulting suspension was returned to a sterile beaker kept on ice. The extracts from all the mice were pooled and this pooled cell suspension was counted using a Coulter counter and adjusted to a final cell count of 1 - 1.3 x 10^6 cells/ml prior to labelling with [^3H]-arachidonic acid. Typically five mice provided sufficient cells for each multiwell plate. Sufficient [^3H]arachidonic acid in ethanol to give a final concentration of 1.6 µCi/ml (equivalent to 40 µCi/plate) was blown to dryness under nitrogen. The arachidonic acid was then resuspended in 1 or 2 ml of the cell suspension which was then mixed with the remainder of the cell suspension in a centrifuge bottle. The labelled cell suspension was then plated out into sterile plastic 96 flat-bottomed well plates (250 µl per well) and incubated overnight at 37°C in a moist atmosphere of 5% CO2, 95% air. The following day, non-adherent cells were removed by washing 3 times with sterile phosphate buffered saline (PBS). The adherent peritoneal macrophages were then cultured for a further 24 hours in the presence or absence of drugs, in medium B (see below) at 37° in a 5% CO2 atmosphere in order to measure the effects of drugs on the spontaneous release of arachidonic acid in the absence of stimulus. After this incubation, supernatants were removed to give media 1 and stored in sealed multi-well plates at 4°C prior to scintillation counting. Drugs which potentiated spontaneous release of arachidonic acid (125% of controls) were deemed to be toxic at the concentration at which this phenomenon occurred. The supernatants were replaced by fresh medium C containing fresh drug and a stimulus. Three drugs were tested at six concentrations (100, 50, 20, 10, 5 and 1 µM) in replicates of four on each plate. The other wells contained controls consisting of a positive control (e.g. dexamethasone), medium (B) only and medium C only. Incubation was then continued for a further 5 hours, whereupon the supernatants were collected to give media 2 and the adherent cells washed with PBS. The cells were then lysed with 100 µl of 0.1% TRITON® X100 in a 0.1% solution of bovine serum albumin in 0.9% saline and mechanically disrupted to give cell lysates. These supernatants (media 2) and cell lysates (Cells) were also stored in sealed multi-well plates at 4°C prior to scintillation counting. 200 µl aliquots of media, or 100 µl aliquots of cells were counted using 2 ml of OPTIPHASE "HIGH SAFE" (Trademark of LKB) as scintillant. […] The value for the arachidonic acid release in the absence of stimulus (spontaneous, cpm of media 2) from cells which had been exposed to neither stimulus nor drug was subtracted from all equivalent values (cpm media 2, stimulated with or without drug) to give the net stimulated release. The percentage inhibition of arachidonic acid release caused by a drug may then be calculated using the following equation. % Inhibition = 100 -(net stimulated release in presence of drug x 100)/(net stimulated release in absence of drug) [formula] […] The zymosan stimulant was prepared as follows:- zymosan (200mg) (supplied by Sigma) was added to PBS (20ml). The mixture was boiled for 30 minutes and the volume restored to 20ml with water. The zymosan was harvested by centrifugation at 500Xg for 5 minutes, washed twice by resuspension in PBS (10ml) and centrifugation. After the final separation, the zymosan was resuspended in 20ml PBS and stored as lml aliquots at -20°C. […]

Turning to `O=C(CCCN1CCC(CCn2ccnc2)CC1)c1ccccc1` [Example 88, 4-[2-(Imidazol-1-yl)ethyl]-1-(4-oxo-4-phenylbutyl)piperidine], the minimal effective dose in assay [1] is at most 30 mg/kg. Besides, the IC50 in assay [2] was 52 µM.
`c1ccc(CCCN2CCCC(CCn3ccnc3)C2)cc1` (stereo not drawn) [Example 99, 3-[2-(Imidazol-l-yl)ethyl]-1-(3-phenylpropyl)piperidine]: the minimal effective dose in assay [1] came out at 100 mg/kg. In assay [2], the IC50 was determined as 58 µM.
For `c1ccc(CCCN2CCCC(Cn3ccnc3)C2)cc1` (stereo not drawn) [Example 101, 3-Imidazol-1-ylmethyl-1-(3-phenylpropyl)piperidine] the same measures were 100 mg/kg and 18 µM.
